In US11844845B2, “Cell penetrating peptide, conjugate comprising same, and composition comprising conjugate” (GEMVAX & KAEL CO., LTD., priority 2012, dated 2023):

Each substance was assayed on HeLa cell (assay: Cell penetration of pep(CPP)-FITC conjugate in HeLa cell line, flow cytometry (FACS)). Details: HeLa cells, 20 uM FITC-fused peptide, 37° C. for an hour, control = FITC only.
Type: cell-based, Homo sapiens
Description: Homo sapiens cervix adenocarcinoma cell line as HeLa cell lines were purchased from ATCC (American Type Cell Culture). The cells were cultured in MEM supplemented with 10% fetal bovine serum (Invitrogen, USA), Earle's salts, non-essential amino acids, sodium pyruvate and 100 μg/ml penicillin and 10 units/ml streptomycin and cultured at 37° C., 5% CO2 incubator.
Flow cytometry and Confocal microscope analysis were performed to compare the between degree of cellular uptake of the cells were treated with SEQ ID NO: 2 to SEQ ID NO: 178, pep (CPP) and control.
The cell line was divided in a 6-well plate and cultured in a medium containing 10% fetal bovine serum (Invitrogen, USA), 100 μg/ml penicillin, 100 units/ml streptomycin at 37° C. 5% CO2 incubator for 12 hours. After washing the cell line with PBS, starvation was induced in a Minimum Essential Medium for an hour. 20 uM of each carrier peptide was treated and cultured at 37° C. for an hour. After repeating the step of washing the cells with PBS for three times, Trypsin-EDTA was treated form 10 mins at 37° C. to separate the carrier peptide on the outside of the cell. cells were collected with refrigerated PBS and centrifugation was performed to repeat the step of washing the cells for three times. After then, the cells were suspended in 0.5 ml of PBS containing 4% Paraformaldehyde and fluorescence of the cells was analyzed using FACS Calibur (Becton Dickinson). The cellular uptake aspect of control and various peptides combined with FITC was compared and analyzed by MFI (Mean Fluorescence Intensity).
Analysis results shown in FIGS. 2 to 29 are given in detail in Table 7 below.

Row | Substance | cellular uptake, MFI (Mean Fluorescence Intensity)
1 | REARPALLTSRLRFIPKPDGLRPI (listed as Homo sapiens) [Pep-RIA-63] | 19.72 ± 0.33
2 | RELSEAEVRQHREARPALLTSRLRFIPK (listed as Homo sapiens) [Pep-RIA-12] | 12.93 ± 0.18
3 | RFIPK (listed as Homo sapiens) [Pep-RIA-101] | 12.35 ± 0.28
4 | RLRFIPK (listed as Homo sapiens) [Pep-RIA-99] | 17.45 ± 0.19
5 | RPA (listed as Homo sapiens) [Pep-RIA-129] | 11.18 ± 0.97
6 | RPAL (listed as Homo sapiens) [Pep-RIA-128] | 12.41 ± 0.16
7 | RPALL (listed as Homo sapiens) [Pep-RIA-127] | 12.15 ± 0.89
8 | RPALLT (listed as Homo sapiens) [Pep-RIA-126] | 11.51 ± 1.84
9 | RPALLTS (listed as Homo sapiens) [Pep-RIA-125] | 11.07 ± 0.55
10 | RPALLTSRLR (listed as Homo sapiens) [Pep-RIA-123] | 17.31 ± 0.68
11 | RPALLTSRLRF (listed as Homo sapiens) [Pep-RIA-122] | 23.8 ± 1.54
12 | RPALLTSRLRFI (listed as Homo sapiens) [Pep-RIA-105] | 19.4 ± 0.59
13 | RPALLTSRLRFIP (listed as Homo sapiens) [Pep-RIA-121] | 20.72 ± 0.33
14 | RPALLTSRLRFIPK (listed as Homo sapiens) [Pep-RIA-92] | 26.28 ± 0.38
15 | RQHREARPALLISRLRFIPKPD (RQHREARPALLTSRLRFIPKPD; listed as Homo sapiens) [Pep-RIA-25] | 17.41 ± 0.32
16 | RQHREARPALLTSRLRFIPK (listed as Homo sapiens) [Pep-RIA-4] | 27.25 ± 0.79
17 | RQHREARPALLTSRLRFIPKP (listed as Homo sapiens) [Pep-RIA-24] | 19.42 ± 0.72
18 | RQHREARPALLTSRLRFIPKPDGL (listed as Homo sapiens) [Pep-RIA-27] | 19.69 ± 0.49

Row | Substance | cellular uptake, MFI (Mean Fluorescence Intensity)
19 | RQHREARPALLTSRLRFIPKPDGLR (listed as Homo sapiens) [Pep-RIA-36] | 14.07 ± 0.41
20 | RQHREARPALLTSRLRFIPKPDGLRP (listed as Homo sapiens) [Pep-RIA-47] | 17.6 ± 0.82
21 | RQHREARPALLTSRLRFIPKPDGLRPI (listed as Homo sapiens) [Pep-RIA-60] | 15.93 ± 1.84
22 | SEAEVRQHREARPALLTSRLRFIPK (listed as Homo sapiens) [Pep-RIA-9] | 12.7 ± 0.25
23 | SRL (listed as Homo sapiens) [Pep-RIA-169] | 5.64 ± 0.65
24 | SRLRFI (listed as Homo sapiens) [Pep-RIA-166] | 6.97 ± 0.53
25 | SRLRFIP (listed as Homo sapiens) [Pep-RIA-165] | 5.75 ± 0.41
26 | SRLRFIPK (listed as Homo sapiens) [Pep-RIA-98] | 14.04 ± 1.55
27 | TSRLRF (listed as Homo sapiens) [Pep-RIA-161] | 14.41 ± 0.81
28 | TSRLRFIP (listed as Homo sapiens) [Pep-RIA-159] | 12.58 ± 1.08
29 | TSRLRFIPK (listed as Homo sapiens) [Pep-RIA-97] | 13.68 ± 0.37
30 | VRQHREARPALLTSRLRFIPK (listed as Homo sapiens) [Pep-RIA-5] | 20.24 ± 0.34
31 | VRQHREARPALLTSRLRFIPKPDG (listed as Homo sapiens) [Pep-RIA-33] | 15.04 ± 0.68
32 | VRQHREARPALLTSRLRFIPKPDGL (listed as Homo sapiens) [Pep-RIA-34] | 16.37 ± 0.97
33 | VRQHREARPALLTSRLRFIPKPDGLR (listed as Homo sapiens) [Pep-RIA-35] | 13.22 ± 0.34
34 | VRQHREARPALLTSRLRFIPKPDGLRP (listed as Homo sapiens) [Pep-RIA-46] | 15.35 ± 0.92
35 | VRQHREARPALLTSRLRFIPKPDGLRPI (listed as Homo sapiens) [Pep-RIA-59] | 22.69 ± 0.66
